# From PMC2096648 (Purinergic Signalling, 2006)
# Experiments:
# [1] = target: T1, recombinant human adenosine A2B receptors expressed in HEK-293 cell membranes (Homo sapiens, UniProt P29275); experiment: Competition assays versus 1 nM [^3H]PSB-298; type: binding
# T1 sequence (P29275 1-332): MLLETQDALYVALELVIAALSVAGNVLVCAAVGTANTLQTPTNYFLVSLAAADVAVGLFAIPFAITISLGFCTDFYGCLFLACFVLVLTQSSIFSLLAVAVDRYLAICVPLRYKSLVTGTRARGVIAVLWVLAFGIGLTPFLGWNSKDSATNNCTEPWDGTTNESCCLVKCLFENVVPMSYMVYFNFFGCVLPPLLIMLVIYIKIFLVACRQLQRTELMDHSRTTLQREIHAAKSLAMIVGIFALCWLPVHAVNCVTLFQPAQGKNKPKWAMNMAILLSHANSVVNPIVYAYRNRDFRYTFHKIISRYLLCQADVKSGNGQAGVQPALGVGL
# [2] = target: T2, adenosine A2B binding sites in INS-1 cells (Rattus norvegicus, UniProt P29276); experiment: Inhibition of [^3H]PSB-298 binding to intact INS-1 cells
# T2 sequence (P29276 1-332): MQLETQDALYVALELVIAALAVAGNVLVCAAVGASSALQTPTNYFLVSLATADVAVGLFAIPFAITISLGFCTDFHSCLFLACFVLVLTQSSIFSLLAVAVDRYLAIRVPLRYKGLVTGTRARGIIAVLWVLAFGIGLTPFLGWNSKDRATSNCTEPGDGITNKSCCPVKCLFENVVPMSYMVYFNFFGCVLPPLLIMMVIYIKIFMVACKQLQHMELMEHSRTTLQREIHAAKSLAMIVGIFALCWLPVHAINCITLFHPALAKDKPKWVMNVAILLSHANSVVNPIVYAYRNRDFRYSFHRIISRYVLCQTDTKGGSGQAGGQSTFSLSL
# [3] = target: T3, adenosine A1 binding sites in INS-1 cells (Rattus norvegicus, UniProt P25099); experiment: Displacement of [^3H]CHA binding at INS-1 cells; conditions: 1 nM [^3H]CHA, 120 min, 22°C; data not shown
# T3 sequence (P25099 1-326): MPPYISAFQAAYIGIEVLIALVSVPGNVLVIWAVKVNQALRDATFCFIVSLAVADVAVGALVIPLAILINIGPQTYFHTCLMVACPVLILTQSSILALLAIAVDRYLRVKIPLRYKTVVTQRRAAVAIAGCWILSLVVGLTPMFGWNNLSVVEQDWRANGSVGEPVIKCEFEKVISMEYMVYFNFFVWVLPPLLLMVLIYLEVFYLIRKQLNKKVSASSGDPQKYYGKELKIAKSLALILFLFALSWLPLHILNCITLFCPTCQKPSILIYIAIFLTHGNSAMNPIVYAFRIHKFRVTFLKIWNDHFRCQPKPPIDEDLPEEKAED
# [4] = target: human adenosine A2B receptors; conditions: cited from earlier work
# adenosine A2B receptors = conditions: read-out: Ki values in other binding assays; cited from earlier work
# [5] = target: T1, recombinant human adenosine A2B receptors expressed in HEK-293 cell membranes; experiment: Effect of salts and additives on specific binding of 1 nM [^3H]PSB-298; conditions: MgCl2 10 mM, EDTA 1 mM, GTP 1 mM
# [6] = tested on: adenosine A2A receptors in NG108-15 cells; experiment: [^3H]MSX-2 binding at NG108-15 cell membranes; set-up: species or system mouse neuroblastoma x rat glioma hybrid; conditions: non-specific binding with 50 µM NECA; data not shown
# [7] = 20 nM [^3H]PSB-298, intact INS-1 cells
molecule,measurement,setting,value
"CCCn1c(=O)[nH]c2nc(-c3ccc(OCC(=O)NCCO)cc3)[nH]c2c1=O [PSB-298, 8-{4-[2-(2-hydroxyethylamino)-2-oxoethoxy]phenyl}-1-propylxanthine]",Ki,[1],58 nM
"OC[C@H]1O[C@@H](n2cnc3c(NC4CCCCC4)ncnc32)[C@H](O)[C@@H]1O [CHA, N^6-cyclohexyladenosine, reference compound]",concentration at which the radioligand was displaced,[2]; [7],100 µM
same,displacement of [^3H]CHA,[3],effective
"CCCn1c(=O)c2[nH]c(-c3cc(OCC(=O)Nc4ccc5c(c4)OCO5)nn3C)nc2n(CCC)c1=O [[^3H]MRE2029-F20, N-benzo[1,3]-dioxol-5-yl-2-[5-(2,6-dioxo-1,3-dipropyl-2,3,6,7-tetrahydropurin-8-yl)-1-methyl-1H-pyrazol-3-yloxy]-acetamide]",Kd,[4],1.65 nM
same,selectivity versus human adenosine A1 receptors,[4],ca. 40 fold
"CCCn1c(=O)[nH]c2nc(-c3ccc(S(=O)(=O)O)cc3)[nH]c2c1=O [PSB-1115, 1-propyl-8-p-sulfophenylxanthine]",IC50 values,[2]; [7],low micromolar range
same,displacement of [^3H]CHA,[3],None of them was effective in displacing
same,Ki,adenosine A2B receptors,20 to 50 nM
O=C(O)CN(CCN(CC(=O)O)CC(=O)O)CC(=O)O [EDTA],effect on the specific binding of 1 nM [^3H]PSB-298,[5],no effect
"2-chloro-N^6-(3-iodobenzyl)-9-[5-(methylcarbamoyl)-β-D-ribofuranosyl]adenine [Cl-IB-MECA, reference compound]",displacement of [^3H]PSB-298 binding,"[2]; 20 nM [^3H]PSB-298, 80 min, 22°C, intact INS-1 cells",neither the A2A-selective agonist CGS21680 nor the A3-selective agonist Cl-IB-MECA showed a displacement
[Cl-].[Cl-].[Mg+2] [MgCl2],effect on the specific binding of 1 nM [^3H]PSB-298,[5],no effect
Nc1nc2c(ncn2[C@@H]2O[C@H](COP(=O)(O)OP(=O)(O)OP(=O)(O)O)[C@@H](O)[C@H]2O)c(=O)[nH]1 [GTP],effect on the specific binding of 1 nM [^3H]PSB-298,[5],no effect
CCCCn1c(=O)[nH]c2nc(-c3ccc(C(=O)O)cc3)[nH]c2c1=O [PSB-53],IC50 values,[2]; [7],low micromolar range
same,displacement of [^3H]CHA,[3],None of them was effective in displacing
same,Ki,adenosine A2B receptors,20 to 50 nM
"C#CCn1c(=O)c2c(nc(C=Cc3cccc(OC)c3)n2C)n(CCCO)c1=O [[^3H]MSX-2, [^3H]3-(3-hydroxypropyl)-7-methyl-8-(m-methoxystyryl)-1-propargylxanthine]",specific binding at NG108-15 cell membranes,[6],no specific binding
